This is an account of results in patent publication US9708266B2, “Cyclohexyl pyridine derivative” (priority 2014, dated 2017).

NK1 receptor, sequence (Q5DUB1 whole entry): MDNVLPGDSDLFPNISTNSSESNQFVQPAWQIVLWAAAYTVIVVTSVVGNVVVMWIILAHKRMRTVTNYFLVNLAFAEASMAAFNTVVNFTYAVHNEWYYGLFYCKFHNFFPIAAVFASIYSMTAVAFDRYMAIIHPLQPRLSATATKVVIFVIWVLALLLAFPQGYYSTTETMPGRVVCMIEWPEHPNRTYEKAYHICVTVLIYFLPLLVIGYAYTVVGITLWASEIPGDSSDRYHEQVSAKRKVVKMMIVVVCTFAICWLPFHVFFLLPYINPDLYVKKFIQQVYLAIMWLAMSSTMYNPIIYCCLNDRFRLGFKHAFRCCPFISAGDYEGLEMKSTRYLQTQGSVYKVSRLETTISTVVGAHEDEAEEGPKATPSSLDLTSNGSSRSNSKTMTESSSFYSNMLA

In this test the target is NK1 receptor (Meriones unguiculatus (Mongolian jird) (Gerbillus unguiculatus), UniProt Q5DUB1). The test is described as follows: Effect on GR73632-induced foot-tapping. The conditions noted are these: male gerbil, 0.1 mg/kg iv, GR73632 icv after four hours. Type of test: in vivo. The procedure:
The test compound solution was prepared by dissolving the test compound in a vehicle (a mixture of 50% N,N-dimethylacetamide (Wako Pure Chemical Industries), 30% propylene glycol (Wako Pure Chemical Industries), 4% 2-hydroxypropyl-[…] (Wako Pure Chemical Industries) and 16% distilled water).
A male gerbil (Japan SLC) was anesthetized with isoflurane, and 0.1 mg/kg of a test compound was administered from the jugular vein. After four hours, GR73632 (5 pmol/5 μl saline), which is an NK1 receptor agonist, was administered into the cerebral ventricle at the part 1 mm lateral to and 4.5 mm below the bregma in the head, under anesthesia with isoflurane. After the administration, the gerbil was moved to an observation cage, and the foot-tapping period during 30 minutes after the recovery of the righting reflex was measured. The foot-tapping inhibition rate (%) of each test compound was calculated by the following equation. Foot-tapping inhibition rate (%)={1−(Foot-tapping period when test compound was administered)/(Foot-tapping period when solvent was administered)}×100 (2) Measurement of Drug Concentrations
With `Cc1cc(F)ccc1-c1cc(C2CCC(C(=O)O)CC2)ncc1N(C)C(=O)C(C)(C)c1cc(C(F)(F)F)cc(C(F)(F)F)c1` (stereo not drawn) [Example 1, 4-[5-{[2-(3,5-Bistrifluoromethylphenyl)-2-methylpropionyl]methylamino}-4-(4-fluoro-2-methylphenyl)pyridin-2-yl]cyclohexanecarboxylic acid], the “Inhibition (foot-tapping inhibition rate)” value (“Inhibition” for short) is given as 98%. Take `Cc1cc(F)ccc1-c1cc(C2CCCC(CC(=O)O)C2)ncc1N(C)C(=O)C(C)(C)c1cc(C(F)(F)F)cc(C(F)(F)F)c1` (stereo not drawn) [Example 3, {3-[5-{[2-(3,5-Bistrifluoromethylphenyl)-2-methylpropionyl]methylamino}-4-(4-fluoro-2-methylphenyl)pyridin-2-yl]cyclohexyl}acetic acid]: the “Inhibition” value turned out to be 100%. The result for `Cc1cc(F)ccc1-c1cc(C2(C)CCCC(CC(=O)O)C2)ncc1N(C)C(=O)C(C)(C)c1cc(C(F)(F)F)cc(C(F)(F)F)c1` (stereo not drawn) [Example 4, {3-[5-{[2-(3,5-Bistrifluoromethylphenyl)-2-methylpropionyl]methylamino}-4-(4-fluoro-2-methylphenyl)pyridin-2-yl]-3-methylcyclohexyl}acetic acid] reads 77%; that for `Cc1cc(F)ccc1-c1cc(C2CCC3(CC2)CC3C(=O)O)ncc1N(C)C(=O)C(C)(C)c1cc(C(F)(F)F)cc(C(F)(F)F)c1` (stereo not drawn) [Example 7, 6-[5-{[2-(3,5-Bistrifluoromethylphenyl)-2-methylpropionyl]methylamino}-4-(4-fluoro-2-methylphenyl)pyridin-2-yl]spiro[2.5]octane-1-carboxylic acid], 90%. Consider `Cc1cc(F)ccc1-c1cc(C2CCC(CC(=O)O)CC2)nc(C#N)c1N(C)C(=O)C(C)(C)c1cc(C(F)(F)F)cc(C(F)(F)F)c1` (stereo not drawn) [Example 8, {4-[5-{[2-(3,5-Bistrifluoromethylphenyl)-2-methylpropionyl]methylamino}-6-cyano-4-(4-fluoro-2-methylphenyl)pyridin-2-yl]cyclohexyl}acetic acid], for which the “Inhibition” value worked out at 100%. Consider `Cc1ccccc1-c1cc(C2CCC(CC(=O)O)CC2)ncc1N(C)C(=O)C(C)(C)c1cc(C(F)(F)F)cc(C(F)(F)F)c1` (stereo not drawn) [Example 9, {4-[5-{[2-(3,5-Bistrifluoromethylphenyl)-2-methylpropionyl]methylamino}-4-ortho-tolylpyridin-2-yl]-cyclohexyl}acetic acid], for which the “Inhibition” value was determined as 75%. For `Cc1cc(F)ccc1-c1cc(C2CCC(C(C)C(=O)O)CC2)ncc1N(C)C(=O)C(C)(C)c1cc(C(F)(F)F)cc(C(F)(F)F)c1` (stereo not drawn) [Example 10, 2-{4-[5-{[2-(3,5-Bistrifluoromethylphenyl)-2-methylpropionyl]methylamino}-4-(4-fluoro-2-methylphenyl)pyridin-2-yl]cyclohexyl}propionic acid], the “Inhibition” value is 97%. Take `Cc1cc(F)ccc1-c1cc([C@H]2CC[C@H](C(C)(C)C(=O)O)CC2)ncc1N(C)C(=O)C(C)(C)c1cc(C(F)(F)F)cc(C(F)(F)F)c1` [Example 11, trans-2-{4-[5-{[2-(3,5-Bistrifluoromethylphenyl)-2-methylpropionyl]methylamino}-4-(4-fluoro-2-methylphenyl)pyridin-2-yl]cyclohexyl}-2-methylpropionic acid]: the “Inhibition” value was found to be 95%. As to `Cc1cc(F)ccc1-c1cc([C@H]2CC[C@@H](CC(=O)O)CC2)ncc1N(C)C(=O)C(C)(C)c1cc(C(F)(F)F)cc(C(F)(F)F)c1` [Example 14, cis-{4-[5-{[2-(3,5-bistrifluoromethylphenyl)-2-methylpropionyl]methylamino}-4-(4-fluoro-2-methylphenyl)pyridin-2-yl]cyclohexyl}acetic acid], the “Inhibition” value amounted to 99%. On to `Cc1cc(F)ccc1-c1cc(C2CCC(C)(CC(=O)O)CC2)ncc1N(C)C(=O)C(C)(C)c1cc(C(F)(F)F)cc(C(F)(F)F)c1` (stereo not drawn) [Example 15, {4-[5-{[2-(3,5-Bistrifluoromethylphenyl)-2-methylpropionyl]methylamino}-4-(4-fluoro-2-methylphenyl)pyridin-2-yl]-1-methylcyclohexyl}acetic acid], for which the “Inhibition” value was found to be 100%.

For `Cc1ccccc1-c1cc(C2CCC(CC(=O)O)CC2)nc(C#N)c1N(C)C(=O)C(C)(C)c1cc(C(F)(F)F)cc(C(F)(F)F)c1` (stereo not drawn) [Example 16, [4-(5-{[2-(3,5-Bistrifluoromethylphenyl)-2-methylpropionyl]methylamino}-6-cyano-4-ortho-tolylpyridin-2-yl)cyclohexyl]acetic acid], the “Inhibition” value is 93%. `Cc1cc(F)ccc1-c1cc(C2CCC(CC(=O)O)CC2)nc(C)c1N(C)C(=O)C(C)(C)c1cc(C(F)(F)F)cc(C(F)(F)F)c1` (stereo not drawn) [Example 18, {4-[5-{[2-(3,5-Bistrifluoromethylphenyl)-2-methylpropionyl]methylamino}-4-(4-fluoro-2-methylphenyl)-6-methylpyridin-2-yl]cyclohexyl}acetic acid]: the “Inhibition” value worked out at 100%. As for `Cc1cc(F)ccc1-c1cc(C2CCC(CC(=O)O)CC2)nc(CO)c1N(C)C(=O)C(C)(C)c1cc(C(F)(F)F)cc(C(F)(F)F)c1` (stereo not drawn) [Example 19, {4-[5-{[2-(3,5-Bistrifluoromethylphenyl)-2-methylpropionyl]methylamino}-4-(4-fluoro-2-methylphenyl)-6-hydroxymethylpyridin-2-yl]cyclohexyl}acetic acid], the figure is 95%; as for `Cc1cc(F)ccc1-c1cc([C@H]2CC[C@H](CC(=O)O)CC2)nc(C#N)c1N(C)C(=O)C(C)(C)c1cc(C(F)(F)F)cc(C(F)(F)F)c1` [Example 20, trans-{4-[5-{[2-(3,5-Bistrifluoromethylphenyl)-2-methylpropionyl]methylamino}-6-cyano-4-(4-fluoro-2-methylphenyl)pyridin-2-yl]cyclohexyl}acetic acid], 100%. Turning to `Cc1cc(F)ccc1-c1cc([C@H]2CC[C@@H](CC(=O)O)CC2)nc(C#N)c1N(C)C(=O)C(C)(C)c1cc(C(F)(F)F)cc(C(F)(F)F)c1` [Example 21, cis-{4-[5-{[2-(3,5-bistrifluoromethylphenyl)-2-methylpropionyl]methylamino}-6-cyano-4-(4-fluoro-2-methylphenyl)pyridin-2-yl]cyclohexyl}acetic acid], the “Inhibition” value came to 100%.
